Assay results as given in US20230130823A1, “PROCESS FOR THE PRODUCTION OF ANTITUMOUR PHARMACEUTICAL COMPOSITIONS USING PUSH-PULL BUTADIENES, COMPOUNDS AND USES THEREOF” (ANHANGUERA EDUCACIONAL PARTICIPAÇÕES S/A, priority 2019, published 2023).
pIC50: −log10 of the molar value. ≈ marks a conversion by molar mass, not a printed value. Where “and” joins values, the source holds several entries; their conditions need not be identical. Identical values can stand only once.

How the values were obtained:
[1] = test system: FN-1 (Normal human fibroblast); experiment: Cytotoxicity, normal human fibroblasts; assay type: cell-based
Protocol: Fragments of cutaneous biopsies from patients treated by the Dermatology Service of the Clinic Hospital of the Medicine School of USP were removed for routine diagnostic procedures and part of the surgical flap edge immersed in Eagle culture medium modified by Dulbecco's (DMEM, Sigma Chemical Co., St. Louis, Mo., USA) added of 10% fetal bovine serum (Cultilab Ltda., Campinas-SP), […] and 50 ng/ml amphotericin B at 4 C and kept at 4 C for a maximum of 16 hours.
The fragments were washed three times in the same solution, cut into fragments of approximately 1 mm^3 and transferred to 25 cm^2 culture flasks, kept at 37 C, humid atmosphere containing 5% CO2. Cell growth monitored daily, photo documented in inversion microscopy and culture medium exchanged every 2 or 3 days, according to cell metabolism.
After 7 days, the first change in the culture medium of the flasks was performed once cell growth started, the culture medium was renewed every three days. Plastic flasks were used for cultivation of 25 cm^2 of cultivated area, where more 3 ml of DME medium containing 10% fetal bovine serum and 1% of antibiotic-antimycotic solution will be added.
The cell viability test was performed to verify the effect of the various compounds on the various concentrations previously established: on the lines of tumor cells B16F10 and normal human fibroblasts. The MTT method consists of a cell viability test that measures the activity of mitochondrial dehydrogenase. MTT is a colorimetric method based on the capacity of living cells to reduce salt 3-(4,5-di-methylazole-2-IL)-2,5-diphenyl tetrazolium bromide in the formazan product (Mosmann, 1983). […]
The 96-well plate was read by the spectrophotometer (Spectra MAX-190) using the wavelength of 570 nm. The results were analyzed by absorbance of each well. The percentage of viability was obtained using the following formula: [(Absorbance of treated cells/Absorbance of untreated cells)×100]. […]

[2] = test system: HUVEC (Normal human endothelial cell); experiment: Cytotoxicity, HUVEC normal cells
CaCo2 = experiment: In vitro cytotoxicity, CaCo2 colon line; assay type: cell-based; conditions: Homo sapiens, Caco-2; CaCo2, colon; read-out: IC50
HT-29 = experiment: In vitro cytotoxicity, HT-29 colon line; assay type: cell-based; conditions: Homo sapiens; HT-29, colon; read-out: IC50
Colo205 [3] = experiment: In vitro cytotoxicity, Colo205 colon line; assay type: cell-based; conditions: Homo sapiens, COLO 205; Colo205, colon; read-out: IC50
SW620 = experiment: In vitro cytotoxicity, SW620 colon line; assay type: cell-based; conditions: Homo sapiens, SW-620; SW620, colon; read-out: IC50
CRO2B = experiment: In vitro cytotoxicity, CRO2B carcinoid line; assay type: cell-based; conditions: Homo sapiens, carcinoid, read-out: IC50
MIAP2 = experiment: In vitro cytotoxicity, MIAP2 pancreas line; assay type: cell-based; conditions: Homo sapiens; MIAP2, pancreas; read-out: IC50
BxPC3 = experiment: In vitro cytotoxicity, BxPC3 pancreas line; assay type: cell-based; conditions: Homo sapiens, BXPC-3; BxPC3, pancreas; read-out: IC50
PANC1 = experiment: In vitro cytotoxicity, PANC1 pancreas line; assay type: cell-based; conditions: Homo sapiens, PANC-1; PANC1, pancreas; read-out: IC50
[4] = test system: lines of human carcinoma tested; experiment: In vitro cytotoxicity against the panel of human carcinoma lines; conditions: tumor cell lines of human carcinoma tested
tumor cells line Colo205 = experiment: Colo205 cell count; assay type: cell-based; conditions: compared to cells treated with culture medium only
Protocol: The compounds were tested for their ability to reduce the number of cells in the tumor, compared to cells treated with culture medium only. In Table 4, the results obtained are shown.

Colo205 [5] = experiment: Determination of apoptotic cells (subG1), Colo205, flow cytometry; assay type: cell-based; conditions: sub-diploid DNA content
Text: Determination of Apoptotic Cells (subG1)-Colo205
In this experiment, the proportion of apoptotic cells was identified, that is, cells showing DNA content below normal (sub-diploid) in flow cytometry testing.

Colo205 [6] = experiment: Analysis of the cell cycle phases, Colo205; assay type: cell-based
Text: The compounds of this family were also studied for the distribution of the population of tumor cells in the different phases of the cell cycle: quiescent cells, non-proliferating (G1/G0 phase), which present DNA/RNA synthesis capacity (S phase) and cell division cells (G2/M phase).

[7] = test system: murine melanoma cells B16F10; experiment: MTT cytotoxicity in B16F10 melanoma cells; assay type: cell-based; conditions: for IC50: Mus musculus, B16-F10, B16F10 melanoma, 24 hours of culture, MTT, read-out: CI50% (the source's name)
Protocol: The tumor line of murine melanoma B16F10 was donated by the Ludwig-Switzerland Institute. Adherent cell suspensions of B16F10 cells were obtained for all experimental procedures by treating culture flasks with trypsin 0.2% for 5 minutes and inactivated with 10% fetal bovine serum. The detached cells were centrifuged twice, resuspended in supplemented RPMI-1640 medium. The count was performed in Malassez chamber, and the cell concentration was adjusted in 5×10^5 cells/ml, in RPMI-1640 culture medium supplemented with 10% fetal bovine serum and 7 ug polymyxin-B (Sigma Chemical Company, St Louis Mo.-USA).
Cell viability was determined by the Trypan Blue exclusion test, being greater than 95% of viable cells. The cells were grown in plates with 96 well plate flat bottoms (Corning), at a concentration of 2×10^5 cells, maintained for 24 hours in a CO2 oven at 37° C. After this period, the plates were centrifuged for 5 minutes, at 2000 rpm at 4° C., the supernatant discarded and added different concentrations of the compounds, diluted in RPMI-1640 culture medium, supplemented and increased by 7 μg of Polymyxin-B (Sigma Chemical Company). After treatment with the various diluted compounds in complete culture medium, the cells were incubated with 0.5 mg/mL of MTT reactive.
The cell viability test was performed to verify the effect of the various compounds on the various concentrations previously established: on the lines of tumor cells B16F10 and normal human fibroblasts. The MTT method consists of a cell viability test that measures the activity of mitochondrial dehydrogenase. MTT is a colorimetric method based on the capacity of living cells to reduce salt 3-(4,5-di-methylazole-2-IL)-2,5-diphenyl tetrazolium bromide in the formazan product (Mosmann, 1983). After the cells plating (concentration of 1×10^4 per well of the culture plate) in RPMI-1640 medium and 10% SFB medium, they were maintained at 37° C. for periods of 24, 48, 72 and 96 hours. Four hours before the set time was completed, MTT 20 μL (Sigma) was added (final concentration of […]). The plates were kept in the oven for the remaining four hours. After the stipulated time, 180 μL of the supernatant were removed from each well and then added 150 μL of dimethyl sulfoxide (Sigma) homogenizing well for the complete dissolution of the salt crystals formed by the mitochondrial metabolism resulting in a staining.
The 96-well plate was read by the spectrophotometer (Spectra MAX-190) using the wavelength of 570 nm. The results were analyzed by absorbance of each well. The percentage of viability was obtained using the following formula: [(Absorbance of treated cells/Absorbance of untreated cells)×100]. The experiments were carried out in quadruplicate.
The samples of the compounds obtained by synthesis chemistry were diluted in DMSO solution at the final concentration of 10%.

[8] = test system: 4T1 (murine mammary carcinoma); experiment: Cytotoxicity, 4T1 cells; assay type: cell-based; conditions: Mus musculus, read-out: CI50% tumor cells
[9] = test system: MCF-7 (human mammary adenocarcinoma); experiment: Cytotoxicity, MCF-7 cells; assay type: cell-based; conditions: MCF7, read-out: CI50% tumor cells
[10] = test system: SCC9 (squamous-cell carcinoma of the oral cavity); experiment: Cytotoxicity, SCC9 cells; assay type: cell-based; conditions: Homo sapiens, SCC-9, read-out: CI50% tumor cells

## COc1ccc(/C=C/C(Cl)=C/C=C(C(C)=O)C(C)=O)cc1OC [Compound 24, 3-((2Z,4E)-3-chloro-5-(3,4-dimethoxyphenyl)penta-2,4-dien-ylidene)pentane-2,4-dione]
[1]; FN-1
  CI50% Normal cells: 61.80 µM
[2]
  CI50% Normal cells: 114 µM

## CCSC(=CC(=C(C#N)C#N)c1ccc(OCC=C(C)C)cc1)SCC [Compound 3]
CaCo2
  pIC50: 5.09
HT-29
  pIC50: 5.41
Colo205 [3]
  pIC50: 4.84
SW620
  pIC50: 4.93
CRO2B
  pIC50: 5.19
MIAP2
  pIC50: 5.41
BxPC3
  pIC50: 4.62
PANC1
  pIC50: 4.30
[4]
  cytotoxic activity (in words): potent cytotoxic activity

## N#CC(C#N)=C/C=C(\Cl)c1ccccc1OC(=O)c1ccccc1 [Compound 6, 2-(1-chloro-4,4-dicyano-buta-1,3-dienyl)phenyl Benzoate]
CaCo2
  pIC50: 5.03
HT-29
  pIC50: 5.35
Colo205 [3]
  pIC50: 4.79
SW620
  pIC50: 4.87
CRO2B
  pIC50: 5.13
MIAP2
  pIC50: 5.35
BxPC3
  pIC50: 4.56
PANC1
  pIC50: 4.24
Tumor cells line Colo205
  Relative number of cells (% ± standard deviation): 12.7 ± 0.339%
Colo205 [5]
  Percentage of cells (apoptotic, subG1): 41.8 ± 0.141%
Colo205 [6]; G1/G0 phase
  Cell cycle phase (%) G1/G0: 64.3 ± 1.69%
Colo205 [6]; G2/M phase
  Cell cycle phase (%) G2M: 16.0 ± 0.28%
Colo205 [6]; S phase
  Cell cycle phase (%) S: 19.7 ± 1.48%
[7]
  IC50: 30.6 µg/mL and 91.6 µM
[1]; fibroblasts
  activity against fibroblasts (in words): significant activity
[4]
  cytotoxic activity (in words): potent in vitro activity

## O=C(Oc1ccc(/C(Cl)=C/C=C/[N+](=O)[O-])cc1)c1ccccc1 [Compound 16, 4-(1-chloro-4-nitro-buta-1,3-dienyl)phenyl Benzoate]
[7]
  IC50: 34.9 µg/mL and 106 µM

## COc1cc(/C=C/C(=O)/C=C/C=C(Cl)/C=C/c2ccc(OC)c(OC)c2)ccc1O [Compound 29, (1E,4E,6Z,8E)-7-chloro-1-(4-hydroxy-3-methoxyphenyl)-9-(3,4-dimethoxyphenyl)nona-1,4,6,8-tetraen-3-ona]
[8]
  pIC50: 5.08
[9]
  pIC50: 6.15
[10]
  pIC50: 5.04

## N#CC(C#N)=C/C=C(\Cl)c1ccc(OC(=O)c2ccccc2)cc1 [Compound 14, 4-(1-chloro-4,4-dicyano-buta-1,3-dienyl)phenyl Benzoate]
[7]
  IC50: 168 µg/mL (≈ 503 µM)

## O=C(Oc1ccccc1/C(Cl)=C/C=C/[N+](=O)[O-])c1ccccc1 [Compound 7, 2-(1-chloro-4-nitro-buta-1,3-dienyl)phenyl Benzoate]
[7]; B16F10, compared with compound 6
  activity relative to compound 6: almost ten times more active
[7]
  IC50: 3.27 µg/mL and 9.93 µM
[4]
  cytotoxic activity (in words): little antitumor activity
